Test results from patent publication US6436395B1, “Rosellinia subiculata ATCC 74386 and fungus ATCC 74387 for producing sordarin compounds for fungi control” (Merck & Co., Inc., priority 1996, dated 2002).

How the values were obtained:
Type in all cases: in vivo
Erysiphe graminis [1] = experiment: Action against Erysiphe graminis on wheat, protectant foliar spray (test a); details: wheat plants, 200 ppm spray 2 hours before infection (protectant), evaluated after 8 days
Method: 1. Action against Erysiphe graminis on wheat. a) After 1 week cultivation, wheat plants are sprayed to run off with a spray mixture (200 ppm active ingredient/20% acetone/0.25% Triton […]). After 2 hours, the treated plants are infected with ascospores shaken from inoculum plants. Fungal attack is evaluated after incubation for 8 days at 22° C. at 50% relative humidity to determine the protection given by the compound.

Erysiphe graminis [2] = experiment: Action against Erysiphe graminis on wheat, curative foliar spray (test b); details: wheat plants, 200 ppm spray 24 hours after infection (curative), evaluated after 8 days
Method: 1. Action against Erysiphe graminis on wheat. b) After 1 weeks cultivation, wheat plants are infected with ascospores shaken from inoculum plants. After 24 hours, the wheat plants are sprayed with a spray mixture (200 ppm active ingredient/ 20% acetone/0.25% Triton […]). Fungal attack is evaluated after incubation for 8 days at 22° C. at 50% relative humidity to determine the degree of curative activity provided by the compound.

Puccinia recondita [3] = experiment: Action against Puccinia recondita on wheat, protectant foliar spray (test a); details: wheat plants, 200 ppm spray 2 hours before infection (protectant), evaluated after 1 day + 7 days
Method: 2. Action against Puccinia recondita on wheat a) After 1 weeks cultivation, wheat plants sprayed to run off with a spray mixture (200 ppm active ingredient/20% acetone/0.25% Triton […]). After 2 hours, the treated plants are infected with a spore. Fungal attack is evaluated after incubation for 1 day at 95-100% relative humidity at 20° C. followed by 7 days at 25° C. at 50% relative humidity to determine the protection given by the compound.

Erysiphe graminis [4] = experiment: Action against Erysiphe graminis on wheat, curative soil drench, systemic (test c); details: wheat plants, 200 ppm soil drench 24 hours after infection (systemic), evaluated after 8 days
Method: 1. Action against Erysiphe graminis on wheat. c) After 1 weeks cultivation, wheat plants are infected with ascospores shaken from inoculum plants. After 24 hours, the soil in which the wheat plants are growing is drenched with the drench mixture (200 ppm active ingredient/20% acetone/0.25% Triton […]). Fungal attack is evaluated after incubation for 8 days at 22° C. at 50% relative humidity to determine the degree of curative activity provided by the compound.

Puccinia recondita [5] = experiment: Action against Puccinia recondita on wheat, curative soil drench, systemic (test c); details: wheat plants, 200 ppm soil drench 24 hours after infection (systemic), evaluated after 1 day + 7 days
Method: 2. Action against Puccinia recondita on wheat c). After 1 weeks cultivation, wheat plants are infected with a spore suspension After 24 hours, the soil in which the wheat plants are growing was drenched with the drench mixture (200 ppm active ingredient/20% acetone/0.25% Triton […]). Fungal attack is evaluated after incubation for 1 day at 95-100% relative humidity at 20° C. followed by 7 days at 25° C. at 50% relative humidity to determine the degree of curative activity provided by the compound.

Puccinia recondita [6] = experiment: Action against Puccinia recondita on wheat, curative foliar spray (test b); details: wheat plants, 200 ppm spray 24 hours after infection (curative), evaluated after 1 day + 7 days
Method: 2. Action against Puccinia recondita on wheat b) After 1 weeks cultivation, wheat plants are infected with a spore suspension After 24 hours, the infected plants are sprayed to run off with a spray mixture (200 ppm active ingredient/20% acetone/0.25% Triton […]. Fungal attack is evaluated after incubation for 1 day at 95-100% relative humidity at 20° C. followed by 7 days at 25° C. at 50% relative humidity to determine the degree of curative activity provided by the compound.

Measured: control of fungal infection

CO[C@H]1[C@@H](O)[C@H](O)[C@H](OC[C@@]23C[C@@H]4[C@H](C)CC[C@H]4[C@@]4(C=O)CC2C=C(C(C)C)[C@@]34C(=O)O)O[C@@H]1C [sordarin, Sordarin]
100%: all assays above
